Source: patent publication US8940893B2, “Heteroaromatic compounds as BTK inhibitors” (Boehringer Ingelheim International GmbH, priority 2013, dated 2015)

Molecular target: full-length human His-tagged BTK (Homo sapiens (Human), UniProt Q06187)
Experiment: BTK HTRF assay (Cisbio KinEASE-TK)
Format: biochemical
Conditions: 6 nM BTK, 15 min preincubation at 28° C., 30 uM ATP
Experimental: BTK Assay An HTRF assay (Cisbio KinEASE-TK cat #62TKOPEC) was performed to quantitate the ability of test compounds to inhibit BTK mediated phosphorylation of substrate. […] Then, 1 uM of TK substrate-biotin and 30 uM ATP were added and incubated for an additional 30 minutes at 28° C. Phospohrylation was detected by adding 62.5 nM Streptavidin-XL665 and TK-Antibody Cryptate diluted 1:100 in HTRF detection buffer (Cisbio cat #62SDBRDF) and incubated for 60 minutes at RT. The plate was read on an Envision plate reader and the fluoresence is measured at 620 nm (cryptate) and 665 nm (XL665). A ratio is calculated (665/620) and converted to POC relative to control and blank wells. Assay Buffer: […]

full-length human His-tagged BTK, sequence (Q06187 whole entry): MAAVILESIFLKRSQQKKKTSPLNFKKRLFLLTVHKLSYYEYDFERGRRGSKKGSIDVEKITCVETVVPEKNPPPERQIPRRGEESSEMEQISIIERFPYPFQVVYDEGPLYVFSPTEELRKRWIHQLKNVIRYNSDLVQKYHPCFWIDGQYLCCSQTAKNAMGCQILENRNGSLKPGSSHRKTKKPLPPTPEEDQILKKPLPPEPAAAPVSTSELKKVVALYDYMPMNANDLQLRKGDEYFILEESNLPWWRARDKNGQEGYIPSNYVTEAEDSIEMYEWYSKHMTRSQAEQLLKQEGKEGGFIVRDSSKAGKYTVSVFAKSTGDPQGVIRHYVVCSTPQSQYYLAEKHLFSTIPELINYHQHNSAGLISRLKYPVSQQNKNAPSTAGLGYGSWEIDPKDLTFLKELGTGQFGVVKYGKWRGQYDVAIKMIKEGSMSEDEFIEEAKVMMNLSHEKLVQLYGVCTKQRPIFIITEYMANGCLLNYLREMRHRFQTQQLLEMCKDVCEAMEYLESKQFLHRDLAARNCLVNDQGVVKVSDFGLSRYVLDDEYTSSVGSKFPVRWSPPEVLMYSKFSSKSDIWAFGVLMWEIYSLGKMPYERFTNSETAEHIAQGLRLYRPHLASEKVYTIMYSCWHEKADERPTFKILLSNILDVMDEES

SMILES	IC50 [nM]
C/C=C/C(=O)N1CC2(CC(n3nc(-c4ccc(Oc5ccccc5)nc4)c4c(N)ncnc43)C2)C1 [Example 9]	83
C=CC(=O)N1CC2(CC(n3nc(-c4ccc(Oc5ccccc5)cc4)c4c(N)ncnc43)C2)C1 [Example 1]	1
Nc1ncnc2c1c(-c1ccc(Oc3ccccc3)cc1)nn2C1CC2(C1)CN(C(=O)C1CO1)C2 (stereo not shown) [Example 4]	13
CC#CC(=O)N1CC2(CC(n3nc(-c4ccc(Oc5ccccc5)nc4)c4c(N)ncnc43)C2)C1 [Example 7]	1.1
C=CC(=O)N1CCC2(CC(n3nc(-c4ccc(Oc5ccccc5)cc4)c4c(N)ncnc43)C2)C1 (stereo not shown) [Example 5]	0.87
CC#CC(=O)N1CC2(CC(n3nc(-c4ccc(Oc5ccccc5)cc4)c4c(N)ncnc43)C2)C1 [Example 3]	0.83
C=CC(=O)N1CC2(CC(n3nc(-c4ccc(-c5cnc(Cc6ccccc6)n(C)c5=O)cc4F)c4c(N)ncnc43)C2)C1 [Example 6]	0.85
CN(C)C/C=C/C(=O)N1CC[C@]2(C1)C[C@H](n1nc(-c3ccc(Oc4ccccc4)cn3)c3c(N)ncnc31)C2 [Example 17]	7.1
CN(C)C/C=C/C(=O)N1CC[C@]2(C1)C[C@@H](n1nc(-c3ccc(Oc4ccccc4)cn3)c3c(N)ncnc31)C2 [Example 16]	8.1
CN(C)C/C=C/C(=O)N1CC2(CC(n3nc(-c4ccc(Oc5ccccc5)cn4)c4c(N)ncnc43)C2)C1 [Example 15]	32
CC#CC(=O)N1CC[C@]2(C1)C[C@@H](n1nc(-c3ccc(Oc4ccccc4)cn3)c3c(N)ncnc31)C2 [Example 13]	0.74
CN(C)C/C=C/C(=O)N1CC2(CC(n3nc(-c4ccc(Oc5ccccc5)cc4)c4c(N)ncnc43)C2)C1 [Example 2]	1.8
C=CC(=O)N1CC2(CC(n3nc(-c4ccc(Oc5ccccc5)nc4)c4c(N)ncnc43)C2)C1 [Example 8]	2.4
